Data from article PMC10173323 (ACS Omega, 2023).

Biological target: DNA gyrase (Escherichia coli, UniProt P0AES4+P0AES6)
Experiment: DNA supercoiling gel assay
Format: biochemical

Chain of DNA gyrase (P0AES4 2-875, one chain of several): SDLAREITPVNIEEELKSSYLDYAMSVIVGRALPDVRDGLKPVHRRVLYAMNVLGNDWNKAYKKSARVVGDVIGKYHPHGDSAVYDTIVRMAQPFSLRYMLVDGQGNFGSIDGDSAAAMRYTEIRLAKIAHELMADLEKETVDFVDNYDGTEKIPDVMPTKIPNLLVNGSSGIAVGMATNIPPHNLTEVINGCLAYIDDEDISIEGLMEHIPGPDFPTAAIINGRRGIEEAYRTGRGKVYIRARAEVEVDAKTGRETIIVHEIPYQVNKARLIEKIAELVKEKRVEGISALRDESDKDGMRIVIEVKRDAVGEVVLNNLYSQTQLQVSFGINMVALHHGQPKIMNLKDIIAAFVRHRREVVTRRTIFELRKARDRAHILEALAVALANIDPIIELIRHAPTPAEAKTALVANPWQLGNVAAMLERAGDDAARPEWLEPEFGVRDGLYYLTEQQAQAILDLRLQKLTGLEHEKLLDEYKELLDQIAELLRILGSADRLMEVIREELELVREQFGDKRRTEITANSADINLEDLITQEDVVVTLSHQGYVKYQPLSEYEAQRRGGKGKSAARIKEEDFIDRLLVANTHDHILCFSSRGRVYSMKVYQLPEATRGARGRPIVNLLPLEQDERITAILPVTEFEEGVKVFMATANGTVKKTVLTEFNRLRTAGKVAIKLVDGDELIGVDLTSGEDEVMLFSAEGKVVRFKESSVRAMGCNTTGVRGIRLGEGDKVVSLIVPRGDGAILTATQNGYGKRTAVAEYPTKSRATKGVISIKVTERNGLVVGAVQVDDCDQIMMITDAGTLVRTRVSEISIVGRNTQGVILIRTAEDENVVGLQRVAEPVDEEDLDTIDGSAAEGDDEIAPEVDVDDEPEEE

Compound	IC50 [µM]
O=c1c(-c2ccc(O)cc2)coc2cc(O)ccc12 [daidzein]	0.165
COc1c2occc2c(OC)c2c(=O)cc(C)oc12 [khellin]	3.16
